Data set [1] deals with SW620. As to conditions: read-out: IC50 value in SW620 cells; ref Mamdooh et al., 2019; cited from earlier work.
Data set [2] deals with SW620. As to the kind of experiment: SRB antiproliferation assay, SW620 colorectal cancer cells. The class given is cell-based. The following applies: read-out: Cytotoxicity (as of %Control) IC50 value, SW620, 72 h incubations, mean ± SD, n = 3. A general note: Sulforhodamine B stains cellular protein and so reports cell mass.
The subject of data set [3] is RAW 264.7 mouse macrophage cell line (nitric oxide synthase readout). As to the kind of experiment: LPS-triggered NO. The class given is cell-based. As to conditions: for antiinflammation potency compared with indomethacin: LPS-triggered inflammation in RAW macrophages, in words.
Data set [4] relates to T47D. As to conditions: read-out: antiproliferative IC50, T47D cell line; ref AlKhalil et al., 2020; cited from earlier work.
The next data set deals with A375.2S cell line. The following applies: read-out: antiproliferative IC50, A375.2S cell line; ref AlKhalil et al., 2020; cited from earlier work.
In the next data set the test system is HCT116. In words: SRB antiproliferation assay, HCT116 colorectal cancer cells. The class given is cell-based.
The subject of another data set is PANC1. As to the kind of experiment: SRB antiproliferation assay, PANC1 pancreatic cells. It is filed as cell-based.
The test system of data set [5] is T47D. As to the kind of experiment: SRB antiproliferation assay, T47D breast cancer cells. The class given is cell-based.
The next data set deals with SW480. In words: SRB antiproliferation assay, SW480 colorectal cancer cells. It is filed as cell-based.
In the next data set the test system is MCF7. As to the kind of experiment: SRB antiproliferation assay, MCF7 breast cancer cells. It is filed as cell-based.
Data set [6] relates to colorectal cancer cell lines. The following applies: ref Mamdooh et al., 2019; cited from earlier work.
Another data set has as its system CACO2. In words: SRB antiproliferation assay, CACO2 colorectal cancer cells. As to conditions: read-out: Cytotoxicity (as of %Control) IC50 value, CACO2, 72 h incubations, mean ± SD, n = 3.
A further data set relates to HT29. As to the kind of experiment: SRB antiproliferation assay, HT29 colorectal cancer cells. It is filed as cell-based. The following applies: read-out: Cytotoxicity (as of %Control) IC50 value, HT29, 72 h incubations, mean ± SD, n = 3.
Where [7] appears, read: Mus musculus, RAW264.7, 24 h, read-out: NOS- IC50 value, LPS 20 μg/mL, RAW264.7, 24h incubations, mean ± SD, n = 3.
Where [8] appears, read: read-out: NOS- IC50 value, LPS 20 μg/mL, RAW264.7, 24h incubations, mean ± SD, n = 3.
The mark [9] stands for this setting: Homo sapiens, PANC-1, 72 h, read-out: Cytotoxicity (as of %Control) IC50 value, PANC 1, SRB, 72 h incubations, mean ± SD, n = 3.
The mark [10] stands for this setting: read-out: Cytotoxicity (as of %Control) IC50 value, T47D, SRB, 72 h incubations, mean ± SD, n = 3.
Where [11] appears, read: Homo sapiens, SW480, 72 h, read-out: Cytotoxicity (as of %Control) IC50 value, SW480, SRB, 72 h incubations, mean ± SD, n = 3.
Setting [12] is: Homo sapiens, MCF7, 72 h, read-out: Cytotoxicity (as of %Control) IC50 value, MCF7, SRB, 72 h incubations, mean ± SD, n = 3.
Setting [13] is: read-out: Cytotoxicity (as of %Control) IC50 value, MCF7, SRB, 72 h incubations, mean ± SD, n = 3.
Setting [14] is: Homo sapiens, T47D, 72 h, read-out: Cytotoxicity (as of %Control) IC50 value, T47D, SRB, 72 h incubations, mean ± SD, n = 3.
Where [15] appears, read: read-out: Cytotoxicity (as of %Control) IC50 value, SW480, SRB, 72 h incubations, mean ± SD, n = 3.

Here are results for 13 compounds from paper PMC9971447 (Asian Pacific Journal of Cancer Prevention : APJCP, 2022).

Read-outs that look alike come from different tables or passages of the source.

`CC(C)c1c(C(=O)Nc2ccccc2)c(-c2ccccc2)c(-c2ccc(F)cc2)n1CC[C@@H](O)C[C@@H](O)CC(=O)O` [Atorvastatin]: the IC50 in the data set with SW620 [1] is 0.0018 µM; with SW620 [2], less than 50 µM; in data set [3] (setting [7]), 42 µM; in [3] (setting [8]), 42.8 ± 7.17 µM; in the data set on T47D [4], 34.6 µM; with A375.2S cell line, 0.0156 µM. In addition, in the data set with HCT116 (read-out: Cytotoxicity (as of %Control) IC50 value, HCT116, SRB, 72 h incubations, mean ± SD, n = 3), the IC50 was less than 50 µM. For the same compound, the “antiinflammation potency compared with indomethacin” value in [3] was “substantially more potent”.

For the compound `COCc1c(C(C)C)nc(C(C)C)c(/C=C/[C@@H](O)C[C@@H](O)CC(=O)O)c1-c1ccc(F)cc1` [Cerivastatin], the IC50 is less than 50 µM with PANC1 (setting [9]); less than 50 µM with T47D [5] (setting [10]); 6 µM in the data set on SW480 (setting [11]); less than 50 µM with MCF7 (setting [12]); 2.9 µM with HCT116 (Homo sapiens, HCT-116, 72 h, read-out: Cytotoxicity (as of %Control) IC50 value, HCT116, SRB, 72 h incubations, mean ± SD, n = 3). For the same compound, the “NOS- IC50 value” in data set [3] (LPS 20 μg/mL, RAW264.7, 24h incubations, mean ± SD, n = 3) was “lack and noninhibitory”.

For the compound `COc1cccc2c1C(=O)c1c(O)c3c(c(O)c1C2=O)C[C@@](O)(C(=O)CO)C[C@@H]3O[C@H]1C[C@H](N)[C@H](O)[C@H](C)O1` [Doxorubicin], in [6], the “activity against CRC cell lines (in words)” value (shortened to “activity”) is “nanomolar”.

For `CC(C)n1c(/C=C/C(O)CC(O)CC(=O)O)c(-c2ccc(F)cc2)c2ccccc21` (stereo not drawn) [Fluvastatin], the IC50 is greater than 50 µM in the data set on PANC1 (setting [9]), greater than 50 µM with T47D [5] (setting [10]), greater than 50 µM in the data set on MCF7 (setting [13]) and 110 ± 20.6 µM in data set [3] (setting [7]). In addition, in data set [3], the “antiinflammation potency compared with indomethacin” value was “equipotency to indomethacin”.

On to `COc1ccc2c(c1)c(CC(=O)O)c(C)n2C(=O)c1ccc(Cl)cc1` [Indomethacin], for which the IC50 in data set [3] (setting [7]) was determined as 87 µM; in data set [3] (setting [8]), 86.5 ± 10.5 µM.

For the compound `CC[C@H](C)C(=O)O[C@H]1C[C@@H](C)C=C2C=C[C@H](C)[C@H](CC[C@@H]3C[C@@H](O)CC(=O)O3)[C@H]21` [Lovastatin], the results for the IC50 (with CACO2; in data set [3] (setting [7]); in data set [3] (setting [8])) were greater than 100 µM, 42 µM and 41.6 ± 4.34 µM, respectively. The “antiinflammation potency compared with indomethacin” value in data set [3] is reported as “substantially more potent”.

As to `CC[C@H](C)C(=O)O[C@H]1CCC=C2C=C[C@H](C)[C@H](CC[C@@H]3C[C@@H](O)CC(=O)O3)[C@H]21` [Mevastatin], the IC50 in the data set with PANC1 (setting [9]) is greater than 50 µM; with T47D [5] (setting [14]), greater than 50 µM; in the data set with SW480 (setting [11]), less than 50 µM; in the data set on SW480 (setting [15]), 36 µM; with MCF7 (setting [13]), greater than 50 µM; in data set [3] (setting [7]) it was 142 ± 17.2 µM. Also, the “antiinflammation potency compared with indomethacin” value in [3] is given as “inferior antiinflammation potency to indomethacin”.

Turning to `O=C(O)C[C@H](O)C[C@H](O)/C=C/c1c(C2CC2)nc2ccccc2c1-c1ccc(F)cc1` [Pitavastatin], the IC50 in the data set with PANC1 (read-out: Cytotoxicity (as of %Control) IC50 value, PANC 1, SRB, 72 h incubations, mean ± SD, n = 3) was greater than 50 µM; in the data set on T47D [5] (setting [10]) it was greater than 50 µM; with MCF7 (setting [12]), greater than 50 µM; in data set [3] (setting [7]) it was 98.7 ± 1.87 µM. The “antiinflammation potency compared with indomethacin” value in [3] was “equipotency to indomethacin”.

With `CC[C@H](C)C(=O)O[C@H]1C[C@H](O)C=C2C=C[C@H](C)[C@H](CC[C@@H](O)C[C@@H](O)CC(=O)O)[C@H]21` [Pravastatin], the values for the IC50 (in the data set with PANC1 (setting [9]); in the data set with HT29; in data set [3] (setting [7])) were greater than 50 µM, less than 50 µM and 204 ± 14.1 µM, respectively. Besides, in [3], the “antiinflammation potency compared with indomethacin” value was “inferior antiinflammation potency to indomethacin”.

Turning to `CC(C)c1nc(N(C)S(C)(=O)=O)nc(-c2ccc(F)cc2)c1/C=C/[C@@H](O)C[C@@H](O)CC(=O)O` [Rosuvastatin], the IC50 in the data set on PANC1 (setting [9]) was greater than 50 µM; in the data set on T47D [5] (setting [14]), greater than 50 µM; with SW480 (setting [15]) it was 23 µM; in the data set with SW620 [2], 15 µM; in the data set with MCF7 (setting [13]) it was 1.5 µM; in data set [3] (setting [7]), 74.2 ± 13.1 µM. In addition, the “antiinflammation potency compared with indomethacin” value in [3] is listed as “equipotency to indomethacin”.

Turning to `CCC(C)(C)C(=O)O[C@H]1C[C@@H](C)C=C2C=C[C@H](C)[C@H](CC[C@@H]3C[C@@H](O)CC(=O)O3)[C@H]21` [Simvastatin], in data set [3], the “antiinflammation potency compared with indomethacin” value is “substantially more potent”. In addition, the IC50 was 42 µM in [3] (setting [7]) and 42.5 ± 6.41 µM in data set [3] (setting [8]).

For the compound `O=C(O)c1cn(C2CC2)c2cc(N3CCNCC3)c(F)cc2c1=O` [ciprofloxacin], in data set [6], the “activity” value was “did not show any activity”.

`CO/N=C1\CN(c2nc3c(cc2F)c(=O)c(C(=O)O)cn3C2CC2)CC1CN` (stereo not drawn) [gemifloxacin]: the “activity” value in [6] is reported as “active”.
